Results published in US20230257372A1 (CHONG KUN DANG PHARMACEUTICAL CORP., priority 2020, published 2023).
Like-named read-outs stand apart in the source and are kept apart here.

Experiments:
human recombinant HDAC1 = target: T1, human recombinant HDAC1 (Homo sapiens, UniProt Q13547); assay: HDAC1 enzyme activity inhibition (HDAC Fluorimetric Drug Discovery Kit); format: biochemical; details: read-out: HDAC1
T1 construct: purchased Enzo Life Science, Inc. BML-SE456
In short: (§1)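 Compounds in 5-fold dilution series were incubated with […] enzyme and 10 μM substrate at 30° C for 60 minutes. Fluor de Lys Developer II was then added for 30 minutes to stop the reaction and develop the fluorescent signal.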

human recombinant HDAC6 = target: T2, human recombinant HDAC6 (Homo sapiens, UniProt Q9UBN7); assay: HDAC6 enzyme activity inhibition (HDAC Fluorimetric Drug Discovery Kit); format: biochemical
T2 construct: purchased Calbiochem Inc. 382180
T2 sequence (Q9UBN7 1-1215): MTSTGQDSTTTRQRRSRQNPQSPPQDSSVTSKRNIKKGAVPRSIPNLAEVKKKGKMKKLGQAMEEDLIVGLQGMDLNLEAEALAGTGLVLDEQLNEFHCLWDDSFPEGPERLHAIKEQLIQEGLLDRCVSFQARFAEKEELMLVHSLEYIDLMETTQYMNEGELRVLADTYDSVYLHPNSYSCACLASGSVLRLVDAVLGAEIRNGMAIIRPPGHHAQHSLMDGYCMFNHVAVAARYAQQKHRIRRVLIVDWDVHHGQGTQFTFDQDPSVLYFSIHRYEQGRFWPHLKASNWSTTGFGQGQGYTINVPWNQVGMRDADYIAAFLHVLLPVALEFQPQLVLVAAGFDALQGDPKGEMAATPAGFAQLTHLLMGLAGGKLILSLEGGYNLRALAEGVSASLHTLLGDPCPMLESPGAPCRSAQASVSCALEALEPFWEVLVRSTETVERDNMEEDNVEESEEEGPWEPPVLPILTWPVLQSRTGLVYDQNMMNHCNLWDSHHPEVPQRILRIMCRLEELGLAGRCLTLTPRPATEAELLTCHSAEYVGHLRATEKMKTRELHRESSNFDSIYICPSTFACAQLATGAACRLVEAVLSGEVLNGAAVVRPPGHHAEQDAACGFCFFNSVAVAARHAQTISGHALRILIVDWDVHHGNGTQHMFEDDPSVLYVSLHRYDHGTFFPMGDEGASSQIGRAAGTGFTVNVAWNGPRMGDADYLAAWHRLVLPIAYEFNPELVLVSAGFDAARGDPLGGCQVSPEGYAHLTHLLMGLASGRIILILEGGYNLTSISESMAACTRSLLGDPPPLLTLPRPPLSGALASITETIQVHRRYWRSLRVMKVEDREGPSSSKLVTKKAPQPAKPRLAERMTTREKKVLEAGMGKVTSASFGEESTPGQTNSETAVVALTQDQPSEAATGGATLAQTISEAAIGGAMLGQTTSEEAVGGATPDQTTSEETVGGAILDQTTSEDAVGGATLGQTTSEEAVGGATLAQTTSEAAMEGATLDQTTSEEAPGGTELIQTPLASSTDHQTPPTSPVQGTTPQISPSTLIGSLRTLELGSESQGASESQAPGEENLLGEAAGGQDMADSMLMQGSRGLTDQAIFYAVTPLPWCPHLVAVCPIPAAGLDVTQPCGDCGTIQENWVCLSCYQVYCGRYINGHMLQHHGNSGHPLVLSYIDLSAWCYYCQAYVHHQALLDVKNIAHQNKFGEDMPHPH
In short: as §1

[1] = human recombinant HDAC1, Fluor de Lys substrate, 30° C. 60 minutes
[2] = human recombinant HDAC6, same protocol as HDAC1
[3] = human recombinant HDAC1, IC50 calculated with GraphPad Prism
[4] = human recombinant HDAC6, IC50 calculated with GraphPad Prism

T1 sequence (Q13547 whole entry): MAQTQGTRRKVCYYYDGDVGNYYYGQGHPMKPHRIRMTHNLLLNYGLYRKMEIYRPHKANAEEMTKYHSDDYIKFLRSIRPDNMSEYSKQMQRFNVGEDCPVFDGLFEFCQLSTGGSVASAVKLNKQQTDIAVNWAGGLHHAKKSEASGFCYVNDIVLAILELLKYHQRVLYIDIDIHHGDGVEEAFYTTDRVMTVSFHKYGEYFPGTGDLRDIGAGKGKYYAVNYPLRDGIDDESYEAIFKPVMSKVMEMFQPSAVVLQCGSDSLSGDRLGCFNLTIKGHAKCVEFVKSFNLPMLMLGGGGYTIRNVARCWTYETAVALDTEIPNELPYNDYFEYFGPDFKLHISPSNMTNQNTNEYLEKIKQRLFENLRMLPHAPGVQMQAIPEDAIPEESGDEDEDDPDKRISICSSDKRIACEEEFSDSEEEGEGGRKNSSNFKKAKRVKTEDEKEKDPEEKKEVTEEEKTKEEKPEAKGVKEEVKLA

SMILES	IC50 (human recombinant HDAC1; [1]) [µM]	HDAC6 selectivity (fold) (human recombinant HDAC6; HDAC6 over HDAC1)	IC50 (human recombinant HDAC6; [2]) [nM]	IC50 (human recombinant HDAC1; [3]) [µM]	HDAC6 selectivity (fold) (human recombinant HDAC6; HDAC1 IC50 / HDAC6 IC50)	IC50 (human recombinant HDAC6; [4]) [nM]
FC1CN(Cc2ccc(-c3cn(Cc4ccc(-c5nnc(C(F)F)o5)cn4)nn3)cc2)C1 [Compound 4559, 2-(difluoromethyl)-5-(6-((4-(4-((3-fluoroazetidin-1-yl)methyl)phenyl)-1H-1,2,3-triazol-1-yl)methyl)pyridin-3-yl)-1,3,4-oxadiazole]	> 50	2347	21.3	–	–	–
CN(C)c1cccc(-c2cn(Cc3ccc(-c4nnc(C(F)F)o4)cn3)nn2)c1 [Compound 3824, 3-(1-((5-(5-(difluoromethyl)-1,3,4-oxadiazol-2-yl)pyridin-2-yl)methyl)-1H-1,2,3-triazol-4-yl)-N,N-dimethylaniline]	–	–	–	> 50	2439	20.5
Fc1cc(-c2nnc(C(F)F)o2)cnc1Cn1cc(-c2cncc(CN3CCC3)c2)nn1 [Compound 18882, 2-(6-((4-(5-(azetidin-1-ylmethyl)pyridin-3-yl)-1H-1,2,3-triazol-1-yl)methyl)-5-fluoropyridin-3-yl)-5-(difluoromethyl)-1,3,4-oxadiazole]	> 50	306	163	–	–	–
CN1CC(NCc2ccc(-c3cn(Cc4ccc(-c5nnc(C(F)F)o5)cc4)nn3)cc2)C1 [Compound 4557, N-(4-(1-(4-(5-(difluoromethyl)-1,3,4-oxadiazol-2-yl)benzyl)-1H-1,2,3-triazol-4-yl)benzyl)-1-methylazetidin-3-amine]	> 50	801	62.4	–	–	–
OCc1c(-c2ccccc2)nnn1Cc1ccc(-c2nnc(C(F)F)o2)cn1 [Compound 4478, (1-((5-(5-(difluoromethyl)-1,3,4-oxadiazol-2-yl)pyridin-2-yl)methyl)-4-phenyl-1H-1,2,3-triazol-5-yl)methanol]	–	–	–	> 50	437	114
FC(F)c1nnc(-c2ccc(Cn3cc(-c4ccc5c(c4)CN(C4CCC4)C5)nn3)nc2)o1 [Compound 4542, 2-(6-((4-(2-cyclobutylisoindolin-5-yl)-1H-1,2,3-triazol-1-yl)methyl)pyridin-3-yl)-5-(difluoromethyl)-1,3,4-oxadiazole]	> 50	1336	37.4	–	–	–
CC(C)N1Cc2cccc(-c3cn(Cc4ccc(-c5nnc(C(F)F)o5)cc4)nn3)c2C1 [Compound 4531, 2-(difluoromethyl)-5-(4-((4-(2-isopropylisoindolin-4-yl)-1H-1,2,3-triazol-1-yl)methyl)phenyl)-1,3,4-oxadiazole]	> 50	412	121	–	–	–
Fc1cc(-c2nnc(C(F)F)o2)ccc1Cn1cc(-c2ccc(F)c(N3C[C@@H]4C[C@H]3CN4)c2)nn1 [Compound 4399, 2-(4-((4-(3-((1S,4S)-2,5-diazabicyclo[2.2.1]heptan-2-yl)-4-fluorophenyl)-1H-1,2,3-triazol-1-yl)methyl)-3-fluorophenyl)-5-(difluoromethyl)-1,3,4-oxadiazole]	–	–	–	> 50	460	108
CCN1CCN(C(=O)c2cccc(-c3cn(Cc4ccc(-c5nnc(C(F)F)o5)cn4)nn3)c2)CC1 [Compound 4482, (3-(1-((5-(5-(difluoromethyl)-1,3,4-oxadiazol-2-yl)pyridin-2-yl)methyl)-1H-1,2,3-triazol-4-yl)phenyl)(4-ethylpiperazin-1-yl)methanone]	–	–	–	> 50	943	53
O=S1(=O)CCN(Cc2cccc(-c3cn(Cc4ccc(-c5nnc(C(F)F)o5)cc4)nn3)c2)CC1 [Compound 4412, 4-(3-(1-(4-(5-(difluoromethyl)-1,3,4-oxadiazol-2-yl)benzyl)-1H-1,2,3-triazol-4-yl)benzyl)thiomorpholine 1,1-dioxide]	–	–	–	> 50	432	116
FC(F)c1nnc(-c2ccc(Cn3cc(-c4cccc(CN5CC(F)(F)C5)c4)nn3)cc2)o1 [Compound 4417, 2-(4-((4-(3-((3,3-difluoroazetidin-1-yl)methyl)phenyl)-1H-1,2,3-triazol-1-yl)methyl)phenyl)-5-(difluoromethyl)-1,3,4-oxadiazole]	–	–	–	> 50	487	102
Fc1cc(-c2nnc(C(F)F)o2)ccc1Cn1cc(-c2ccc(CN3CCC3)cc2)nn1 [Compound 4466, 2-(4-((4-(4-(azetidin-1-ylmethyl)phenyl)-1H-1,2,3-triazol-1-yl)methyl)-3-fluorophenyl)-5-(difluoromethyl)-1,3,4-oxadiazole]	–	–	–	> 50	6944	7.2
Fc1cc(-c2nnc(C(F)F)o2)ccc1Cn1cc(-c2cccc(N3C[C@@H]4C[C@H]3CN4C3CCC3)c2)nn1 [Compound 4319, 2-(4-((4-(3-((1S, 4S)-5-cyclobutyl-2,5-diazabicyclo[2.2.1]heptan-2-yl)phenyl)-1H-1,2,3-triazol-1-yl)methyl)-3-fluorophenyl)-5-(difluoromethyl)-1,3,4-oxadiazole]	–	–	–	> 50	1470	34
CC(C)N1CCc2cc(-c3cn(Cc4ccc(-c5nnc(C(F)F)o5)cn4)nn3)ccc2C1 [Compound 4053, 2-(difluoromethyl)-5-(6-((4-(2-isopropyl-1,2,3,4-tetrahydroisoquinolin-6-yl)-1H-1,2,3-triazol-1-yl)methyl)pyridin-3-yl)-1,3,4-oxadiazole]	–	–	–	> 50	880	56.8
FC(F)c1nnc(-c2ccc(Cn3cc(-c4ccc(CN5CCCC5)cc4)nn3)cc2)o1 [Compound 4550, 2-(difluoromethyl)-5-(4-((4-(4-(pyrrolidin-1-ylmethyl)phenyl)-1H-1,2,3-triazol-1-yl)methyl)phenyl)-1,3,4-oxadiazole]	> 50	2762	18.1	–	–	–
Fc1cc(-c2nnc(C(F)F)o2)ccc1Cn1cc(-c2cc3c(s2)CNCC3)nn1 [Compound 4499, 2-(difluoromethyl)-5-(3-fluoro-4-((4-(4,5,6,7-tetrahydrothieno[2,3-c]pyridin-2-yl)-1H-1,2,3-triazol-1-yl)methyl)phenyl)-1,3,4-oxadiazole]	> 50	922	54.2	–	–	–
Fc1cc(-c2nnc(C(F)F)o2)ccc1Cn1cc(-c2cc(C(F)(F)F)cc(C(F)(F)F)c2)nn1 [Compound 3696, 2-(4-((4-(3,5-bis(trifluoromethyl)phenyl)-1H-1,2,3-triazol-1-yl)methyl)-3-fluorophenyl)-5-(difluoromethyl)-1,3,4-oxadiazole]	–	–	–	> 50	52	945
CCN1CCN(Cc2ccc(-c3cn(Cc4ccc(-c5nnc(C(F)F)o5)cn4)nn3)cc2)CC1 [Compound 4563, 2-(difluoromethyl)-5-(6-((4-(4-((4-ethylpiperazin-1-yl)methyl)phenyl)-1H-1,2,3-triazol-1-yl)methyl)pyridin-3-yl)-1,3,4-oxadiazole]	> 50	2222	22.5	–	–	–
FC(F)c1nnc(-c2ccc(Cn3cc(-c4ccnc(N5CCN(C6COC6)CC5)c4)nn3)nc2)o1 [Compound 4594, 2-(difluoromethyl)-5-(6-((4-(2-(4-(oxetan-3-yl)piperazin-1-yl)pyridin-4-yl)-1H-1,2,3-triazol-1-yl)methyl)pyridin-3-yl)-1,3,4-oxadiazole]	> 50	2057	24.3	–	–	–
CCCN1CCC(Nc2cccc(-c3cn(Cc4ccc(-c5nnc(C(F)F)o5)cc4F)nn3)c2F)CC1 [Compound 4434, N-(3-(1-(4-(5-(difluoromethyl)-1,3,4-oxadiazol-2-yl)-2-fluorobenzyl)-1H-1,2,3-triazol-4-yl)-2-fluorophenyl)-1-propylpiperidin-4-amine]	–	–	–	> 50	2392	20.9
